Measured values published in a melting point compilation (Tetko et al.; mined from patent text by program, amines drawn as free bases though some values may be those of a salt).

Row | SMILES | melting point [°C]
1 | CCC(CC)c1ccc(Cl)c2nc(Oc3c(C)cc(Cl)cc3Cl)n(C)c12 | 155 to 157
2 | Cc1cc(C)c2cccc(OCc3c(Cl)ccc(S(=O)(=O)N4CCC[C@H]4C(=O)N4CCN(C(=O)c5ccc(C=NN)cn5)CC4)c3Cl)c2n1 | 150 to 155
3 | CCCc1c(O)c(C(C)=O)cc(Cl)c1OCCOCCOc1c(C(C)=O)ccc(OCC(=O)O)c1CCC | 89 to 91
4 | CCCCCCc1cccc(-c2cn(C)cc(-c3ccccc3)c2=O)c1 | 93 to 95
5 | CN1CCN(c2c(Cl)cc3c(=O)c(C(=O)O)cn(C4CC4)c3c2Cl)CC1 | > 300
6 | CC(C)(C)c1cc(CN)n(NCC(F)(F)F)n1 | 80 to 83
7 | O=C(O)c1ccccc1Sc1ccc(Cl)c(F)c1 | 231 to 232
8 | COc1ccc2c(c1)c1c(n2C(=O)c2ccccc2)CCC(C(=O)O)C1 (centres undefined) | 216 to 219
9 | COc1ccc2c(c1)/C(=C/CNC(C)=O)CCC2 | 92 to 94
10 | COc1ccc(-c2cnc(S(C)(=O)=O)nc2)cc1OC1CCCC1 | 188 to 190
11 | Oc1ccc(-c2nc(Br)c[nH]2)cc1Cl | 225 to 227
12 | CCCCCCCCCc1ccc(-c2ccc(OCC(C)CC)nn2)cc1 (centres undefined) | 78
13 | CCCCCCCCCCCCCCCCCCOc1cc(OCCCOc2ccc(OCc3ccccc3)cc2)cc(C(=O)OC)c1 | 76 to 77
14 | CCC(CC)C(=O)Nc1ccc2ncn3c(=O)c(C(=O)O)cnc3c2c1 | 295 to 298
15 | CN(C)n1cc(C(=O)O)c(=O)c2cc(F)c(Cl)cc21 | 255 to 256
16 | COc1ccc(C(=O)O)c2c1oc1ccc(Cl)cc12 | 264 to 276
17 | COC(=O)c1cc(-c2ccccc2)cc2c1C(C)(C)CCC2(C)C | 118
18 | CCOC(=O)c1cc2cc(OCCCOC)cc([N+](=O)[O-])c2[nH]1 | 94 to 95
19 | COc1cc2c(cc1OC)[C@@H](O)[C@H](CN1CCC3(CC1)C(=O)NCN3c1ccccc1)C2 (relative stereo) | 189 to 190
20 | CC(C)(C)c1cc(CCc2ccccc2NC(=O)NC2CCN(Cc3ccc(F)c(F)c3)CC2)cc(C(C)(C)C)c1O | 155 to 156
21 | NS(=O)(=O)c1ccc(C2=C(c3cccc(F)c3F)CCC2)cc1 | 133 to 134
22 | CC(C)C[C@H]1CNC[C@H]1C(=O)O (relative stereo) | 260 to 262

Row | SMILES | melting point [°C]
23 | CS(=O)(=O)Nc1ccc2c(c1)c(C(=O)C(=O)NC1=CC(=O)OC1)cn2Cc1ccc(C(F)(F)F)cc1 | 267 to 269
24 | O=Cc1ccc(-c2ccc(-c3ccc(C=O)o3)nc2)cc1 | 217 to 219
25 | CCCCCCCCCCC=Cc1cnn(C(C(=O)Nc2c(OC)cc(OC)cc2OC)c2ccccc2)c1 (centres undefined) | 82 to 85
26 | CC(C)C[C@H](NC(=O)OCC1CCCCC1)C(=O)N[C@@H](C(C)C)[C@@H](O)c1c(-c2ccc(F)cc2)c1=O | 86 to 90
27 | COC(=O)c1ccc(C(=O)NC(C(=O)N2CCCC2C(=O)NC(C(C)C)C(O)C(F)(F)F)C(C)C)cc1 (mixture of isomers) | 64 to 67
28 | CC(C)(C)c1ccccc1N1CCN(C(=O)c2ncoc2-c2ccccc2)CC1 | 146 to 148
29 | c1ccc(OC2CCN(CCc3c[nH]c4ccccc34)CC2)cc1 | 123 to 125
30 | CCCOc1ccccc1-c1nc2n(C3CCCC3)[nH]c(C)c-2c(=O)n1 | 130 to 132
31 | COC(=O)c1ccc(S(C)(=O)=O)c(COc2ccnn2C)c1Cl | 70
32 | CON(C(=O)c1cn(C)nc1C(F)(F)F)C(CF)Cc1c(Cl)cc(Cl)cc1Cl (centres undefined) | 131 to 133
33 | Cc1noc(NS(=O)(=O)c2ccsc2NC(=O)Nc2sccc2S(=O)(=O)Nc2onc(C)c2C)c1C | 112 to 114
34 | CC1(C)CCC(C)(C)c2cc(-c3cc(-c4ccc(C(=O)O)cc4)ccc3OCCCN)ccc21 | 243
35 | CC1CC(=O)NN=C1c1ccc(NC(=O)C2CC2(C)C)cc1 (centres undefined) | 222 to 223
36 | COC(=O)/C=C/n1cnc2ccc(C3CC3)cc2c1=O | 178
37 | C=C(C)C(=O)OCCOc1ccc(-c2ccccc2)cc1 | 59 to 60
38 | CCC(=O)Cc1cc(OC)ccc1NC(=O)OC(C)(C)C | 80 to 81
39 | CC1(C)CCC(=O)CC1S(=O)(=O)c1ccccc1 (centres undefined) | 84 to 86
40 | COc1ccc(CCNc2nc(Cl)ccc2N)cc1OC | 90 to 91
41 | Cc1ccc(Oc2ccc(-c3nnc(N)o3)cc2)c(O)c1 | 181 to 183
42 | COc1cc(-c2ccc(C#N)cc2)cc(-c2nc3cc(C#N)ccc3[nH]2)c1O | 334 to 335
43 | CCOC(Cc1ccc(OCCN(C)c2nc3ccccc3o2)cc1)C(N)=S (centres undefined) | 46 to 48
44 | O=C(Nc1ccccn1)c1c(OC(F)F)ccc2oc3ccc(C(F)(F)F)cc3c12 | 169 to 170

The remaining lines, values ahead:

Row | melting point [°C] | SMILES
45 | 139 to 142 | CN(CCCC(C(N)=O)(c1ccccc1)c1ccccc1)CCc1ccc(CN)cc1
46 | 258 to 260 | Nc1nc2ccc3ccccc3c2s1
47 | 83.5 to 85 | Cc1ccc(-c2c(N=[N+]=[N-])ncnc2OCCO)cc1
48 | 53 to 54 | CC(=NOCC1CC1)c1cc(Cl)ccc1NS(=O)(=O)C(F)(F)F
49 | 168 | CC(C)n1nc(-c2c(-c3ccccc3)nn3ccc(OCc4ccccc4)cc23)ccc1=O
50 | 203 to 205 | CC(C#N)(Cn1ncc2cc([N+](=O)[O-])ccc21)NC(=O)c1ccc(OC(F)(F)F)cc1 (centres undefined)
51 | 120 | COC(C)(OC)OC(=O)N[C@@H](Cc1cn(S(=O)(=O)c2ccc(C)cc2)cn1)C(=O)O
52 | 308 | Sc1ncc(-c2ccc(Cl)cc2)[nH]1
53 | 202 to 204 | O=C(CC1=C(n2nc(-c3c(-c4ccccc4)nn4ccccc34)ccc2=O)CCCC1)N1CCOCC1
54 | 79 to 80 | COC(=O)C1=C(OC)c2ccccc2S(=O)(=O)N1C
55 | 239 to 240 | NC(=O)CC1CN=C(c2cc3cc(OC(F)(F)F)cc(NS(=O)(=O)c4cccs4)c3[nH]2)S1 (centres undefined)
56 | 284 to 285 | Cn1cc(C(=O)O)c(=O)c2cc(F)c(-n3cccc3)cc21
57 | 91 | CN1CCCNC(=O)C1
58 | 222 to 225 | Cc1c(OCC(C)(C)CS(N)(=O)=O)nn2ccnc2c1C
59 | > 250 | O=C1CCC(c2ccc(-c3ccc(=O)[nH]n3)cc2)=NN1
60 | 187 | O=P(O)(O)C(O)(CCc1ccc(Cl)c(Cl)c1)P(=O)(O)O
61 | 158 to 160 | CC(C)(C)OC(=O)NC1C=CCC2C(=O)NC(=O)C12 (centres undefined)
62 | 149 to 150 | COc1ccc(Cn2nc(CN3CCN(c4ccccc4OC)CC3)c3cc(OC)c(OC)cc32)cc1OC
63 | 228 to 233 | CC1(C)CC(=O)Nc2cc3nc(-c4ccc(C#N)cc4)[nH]c3cc21
64 | 201 to 203 | COc1ccc(CNc2cc(C(N)=O)c([N+](=O)[O-])cc2[N+](=O)[O-])cc1
65 | 80 to 82 | CCOC(=O)C(=O)Cc1c(OCc2ccccc2)cc(C)cc1[N+](=O)[O-]
66 | 89 to 90 | CC(=NOc1ccc(Cl)cc1)c1ccc(C(F)(F)F)cc1NS(=O)(=O)C(F)(F)F
67 | 171 | CCc1n[nH]c(=O)n1N
68 | 144 to 146 | COC(=O)c1cccc2c1C(Cc1ccncc1)(Cc1ccnc(F)c1)c1ccccc1-2 (centres undefined)
69 | 131 to 132 | CC(C)[C@H](N)C(=O)N[C@@H](Cc1ccccc1)C(O)[C@H](Cc1ccccc1)NC(=O)[C@@H](N)C(C)C
70 | 155 to 158 | COc1cc(CN2Cc3cc(OC)c(O)cc3CC2C)cc(OC)c1 (centres undefined)
71 | 144 to 147 | C=C1CSC2C(NC(=O)Cc3ccccc3)C(=O)N2C1C(=O)OC(c1ccccc1)c1ccccc1 (centres undefined)
72 | 196 | Nc1ccc2ccc(Oc3ccccc3)nc2n1

Row | melting point [°C] | SMILES
73 | 122 to 125 | O=Cc1cc(F)c(NC(=O)C(F)(F)F)c(F)c1
74 | 112 to 113 | CSc1ccc(C(=O)c2ccc(F)cc2)[nH]1
75 | 94 to 95 | CCc1sc2nc(C(=O)OC)cn2c1C
76 | 113 to 115 | CC(=O)N(C)CC#CCn1ccnc1
77 | 192 | O=C1C=C(O)CC(c2ccc3sccc3c2)C1 (centres undefined)
78 | 249 to 251 | O=C(O)c1csc2c(=O)cc(C(F)(F)F)oc12
79 | 145 to 147 | O=C1NC(=O)C(=Cc2ccc(OCCN3C(=O)SC(Cc4ccccc4)C3=O)cc2)S1 (centres undefined)
80 | 87 to 89 | CC(CO)NC(=O)NCCCCC1CCSS1 (centres undefined)
81 | > 270 | O=C1c2ccccc2C(=O)N1c1n[nH]c2ccc(O)cc12
82 | > 300 | O=C(O)c1ccc(C(=O)Nc2cccc3cc(Br)cnc23)cc1
83 | 213 to 229 | O=C(O)C(c1ccccc1)N1C(=O)c2cccc([N+](=O)[O-])c2C1=O (centres undefined)
84 | 167 to 168 | CCOC(=O)C(C)=NNc1ccc(C(O)(C(F)(F)F)C(F)(F)F)cc1
85 | 84 to 86 | Cc1oc(-c2ccc(C(F)(F)F)cc2)nc1COc1cccc(C#CC(C)n2oc(=O)[nH]c2=O)c1 (centres undefined)
86 | 78 to 80 | CC1(C#N)CN(C(c2ccccc2)c2ccccc2)C1
87 | 84 | CCc1ccc2c(c1)C(O)(c1ccccn1)CC(C)(C)CO2 (centres undefined)
88 | 55 to 56 | CC(C)(C)c1cc2c(s1)C(=O)N(c1cccc(Br)c1CO)C2
89 | 187 to 189 | O=C(O)c1ccc(C(=O)N[C@@H](Cc2c[nH]c3ccccc23)C(=O)O)cc1
90 | 133 to 135 | O=C(O)Cc1ccc2c(c1)C(=O)CC2
91 | 34 to 36 | CC(C)(C)OC(=O)N1CC(O)C(N=[N+]=[N-])C1 (centres undefined)
92 | 128 to 130 | CS(=O)(=O)c1cnc(Cl)c(CCC(=O)c2ccc(Cl)c(Cl)c2)c1
93 | 131 to 132 | CCOC(=O)c1cc2c(C=O)ccc(OCc3ccccc3)c2[nH]1
94 | 177 to 179 | O=S(=O)(C(=CNc1ccc(Br)cn1)S(=O)(=O)c1ccccc1)c1ccccc1
95 | 127 to 128 | CC(C)(C)C(=O)CC(Sc1ccccc1)c1ccc(Cl)cc1 (centres undefined)
96 | 202 to 205 | Cn1cnc(COc2n[nH]c(C=O)c2-c2ccccc2)n1
97 | 203 to 204 | COC1OCC[C@@H]1NC(=O)[C@H](Cc1ccccc1)NC(=O)CNC(=O)COc1ccc2c(c1)Nc1ccccc1S2 (some centres undefined)
98 | 157 | COc1ccc(OC)c(C2(Cl)C(=O)Nc3ccc(Cl)cc32)c1 (centres undefined)
99 | 105 to 107 | O=[N+]([O-])c1ccccc1NC1CCCCC1
